Reference: PubChem BioAssay AID1963986 (Molecular Pharmacology Branch, DTP, NCI, 2024)

Tested on: 171881-019-R-J1-PDC tumor spheroid viability
Experiment: Anticancer human tumor 171881-019-R-J1-PDC patient-derived invasive breast carcinoma cell line growth inhibition [PI3K]
Conditions: spheroids with HUVEC and MSC; for IC50: curve of first compound; for viability, T/C: stronger effect = lower value
Procedure, shortened: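 Multi-cell spheroids combine tumor cells with HUVEC and human MSCs, treated with targeted agents alone or with inavolisib, alpelisib, duvelisib or copanlisib. Concentrations fall in half-log steps from at or near clinical Cmax, or from 10 microM where Cmax is unknown; viability read-out.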

[1] = second compound 0.0316 µM, first compound 0.0316 µM
[2] = second compound 0.0316 µM, first compound 0.1 µM
[3] = second compound 0.0316 µM, first compound 0.316 µM
[4] = second compound 0.0316 µM, first compound 1 µM
[5] = second compound 0.0316 µM, first compound 3.16 µM
[6] = second compound 0.0316 µM, first compound 10 µM
[7] = second compound 0.1 µM, first compound 0.0316 µM
[8] = second compound 0.1 µM, first compound 0.1 µM
[9] = second compound 0.1 µM, first compound 0.316 µM
[10] = second compound 0.1 µM, first compound 1 µM
[11] = second compound 0.1 µM, first compound 3.16 µM
[12] = second compound 0.1 µM, first compound 10 µM
[13] = second compound 0.316 µM, first compound 0.0316 µM
[14] = second compound 0.316 µM, first compound 0.1 µM
[15] = second compound 0.316 µM, first compound 0.316 µM
[16] = second compound 0.316 µM, first compound 1 µM
[17] = second compound 0.316 µM, first compound 3.16 µM
[18] = second compound 0.316 µM, first compound 10 µM
[19] = second compound 1 µM, first compound 0.0316 µM
[20] = second compound 1 µM, first compound 0.1 µM
[21] = second compound 1 µM, first compound 0.316 µM
[22] = second compound 1 µM, first compound 1 µM
[23] = second compound 1 µM, first compound 3.16 µM
[24] = second compound 1 µM, first compound 10 µM
[25] = second compound 3.16 µM, first compound 0.0316 µM
[26] = second compound 3.16 µM, first compound 0.1 µM
[27] = second compound 3.16 µM, first compound 0.316 µM
[28] = second compound 3.16 µM, first compound 1 µM
[29] = second compound 3.16 µM, first compound 3.16 µM
[30] = second compound 3.16 µM, first compound 10 µM
[31] = second compound 10 µM, first compound 0.0316 µM
[32] = second compound 10 µM, first compound 0.1 µM
[33] = second compound 10 µM, first compound 0.316 µM
[34] = second compound 10 µM, first compound 1 µM
[35] = second compound 10 µM, first compound 3.16 µM
[36] = second compound 10 µM, first compound 10 µM
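Also: spheroids exposed to compound for 7 days before viability read.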
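For viability, T/C in this document: 100% = DMSO vehicle-treated spheroids.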

SMILES: CC(C)NCC(C(=O)N1CCN(c2ncnc3c2C(C)CC3O)CC1)c1ccc(Cl)cc1 (stereo unspecified) + Cc1nc(NC(=O)N2CCCC2C(N)=O)sc1-c1ccnc(C(C)(C)C(F)(F)F)c1
- IC50 (second compound 0.0316 µM): 276 nM
- IC50 (second compound 0.1 µM): 262 nM
- IC50 (second compound 0.316 µM): 72.8 nM
- IC50 (second compound 1 µM): < 31.6 nM
- IC50 (second compound 3.16 µM): < 31.6 nM
- IC50 (second compound 10 µM): < 31.6 nM
- viability, T/C [1]: 97.9%
- viability, T/C [2]: 68.3%
- viability, T/C [3]: 50.1%
- viability, T/C [4]: 28.4%
- viability, T/C [5]: 16.7%
- viability, T/C [6]: 9.99%
- viability, T/C [7]: 81.6%
- viability, T/C [8]: 64.3%
- viability, T/C [9]: 49.5%
- viability, T/C [10]: 25.9%
- viability, T/C [11]: 13.6%
- viability, T/C [12]: 8.89%
- viability, T/C [13]: 55.5%
- viability, T/C [14]: 46.7%
- viability, T/C [15]: 38%
- viability, T/C [16]: 23.2%
- viability, T/C [17]: 12.6%
- viability, T/C [18]: 8.17%
- viability, T/C [19]: 32%
- viability, T/C [20]: 31%
- viability, T/C [21]: 28.6%
- viability, T/C [22]: 16.1%
- viability, T/C [23]: 8.99%
- viability, T/C [24]: 7.16%
- viability, T/C [25]: 14.6%
- viability, T/C [26]: 14.8%
- viability, T/C [27]: 12.4%
- viability, T/C [28]: 8.95%
- viability, T/C [29]: 6.94%
- viability, T/C [30]: 4.98%
- viability, T/C [31]: 3.06%
- viability, T/C [32]: 3.52%
- viability, T/C [33]: 3.3%
- viability, T/C [34]: 3.85%
- viability, T/C [35]: 2.77%
- viability, T/C [36]: 1.56%

SMILES: CCN1CCN(Cc2ccc(Nc3ncc(F)c(-c4cc(F)c5nc(C)n(C(C)C)c5c4)n3)nc2)CC1 + Cc1nc(NC(=O)N2CCCC2C(N)=O)sc1-c1ccnc(C(C)(C)C(F)(F)F)c1
- IC50 (second compound 0.0316 µM): > 1000 nM
- IC50 (second compound 0.1 µM): > 1000 nM
- IC50 (second compound 0.316 µM): > 1000 nM
- IC50 (second compound 1 µM): < 3.16 nM
- IC50 (second compound 3.16 µM): < 3.16 nM
- IC50 (second compound 10 µM): < 3.16 nM
- viability, T/C (second compound 0.0316 µM, first compound 0.00316 µM): 102%
- viability, T/C (second compound 0.0316 µM, first compound 0.01 µM): 92.9%
- viability, T/C [1]: 98.6%
- viability, T/C [2]: 103%
- viability, T/C [3]: 111%
- viability, T/C [4]: 103%
- viability, T/C (second compound 0.1 µM, first compound 0.00316 µM): 83.9%
- viability, T/C (second compound 0.1 µM, first compound 0.01 µM): 85.8%
- viability, T/C [7]: 91.5%
- viability, T/C [8]: 91.9%
- viability, T/C [9]: 105%
- viability, T/C [10]: 104%
- viability, T/C (second compound 0.316 µM, first compound 0.00316 µM): 59.5%
- viability, T/C (second compound 0.316 µM, first compound 0.01 µM): 61.1%
- viability, T/C [13]: 72.2%
- viability, T/C [14]: 73.8%
- viability, T/C [15]: 80.7%
- viability, T/C [16]: 83.3%
- viability, T/C (second compound 1 µM, first compound 0.00316 µM): 37.2%
- viability, T/C (second compound 1 µM, first compound 0.01 µM): 38.8%
- viability, T/C [19]: 39.1%
- viability, T/C [20]: 45%
- viability, T/C [21]: 53.3%
- viability, T/C [22]: 61.5%
- viability, T/C (second compound 3.16 µM, first compound 0.00316 µM): 15.4%
- viability, T/C (second compound 3.16 µM, first compound 0.01 µM): 17%
- viability, T/C [25]: 19.5%
- viability, T/C [26]: 21%
- viability, T/C [27]: 28.6%
- viability, T/C [28]: 42%
- viability, T/C (second compound 10 µM, first compound 0.00316 µM): 3.79%
- viability, T/C (second compound 10 µM, first compound 0.01 µM): 4.44%
- viability, T/C [31]: 4.59%
- viability, T/C [32]: 4.85%
- viability, T/C [33]: 8.73%
- viability, T/C [34]: 14.2%

SMILES: Cn1ncc(Cl)c1-c1cc(C(=O)NC(CN)Cc2cccc(F)c2)sc1Cl (stereo unspecified) + Cc1nc(NC(=O)N2CCCC2C(N)=O)sc1-c1ccnc(C(C)(C)C(F)(F)F)c1
- IC50 (second compound 0.0316 µM): 155 nM
- IC50 (second compound 0.1 µM): 90.7 nM
- IC50 (second compound 0.316 µM): 32.9 nM
- IC50 (second compound 1 µM): < 31.6 nM
- IC50 (second compound 3.16 µM): < 31.6 nM
- IC50 (second compound 10 µM): < 31.6 nM
- viability, T/C [1]: 77.8%
- viability, T/C [2]: 60%
- viability, T/C [3]: 34.2%
- viability, T/C [4]: 20.2%
- viability, T/C [5]: 11.4%
- viability, T/C [6]: 4.55%
- viability, T/C [7]: 71.3%
- viability, T/C [8]: 47.4%
- viability, T/C [9]: 31.6%
- viability, T/C [10]: 17.6%
- viability, T/C [11]: 11.4%
- viability, T/C [12]: 4.51%
- viability, T/C [13]: 50.1%
- viability, T/C [14]: 42.2%
- viability, T/C [15]: 28.9%
- viability, T/C [16]: 16.3%
- viability, T/C [17]: 9.51%
- viability, T/C [18]: 4.96%
- viability, T/C [19]: 32.2%
- viability, T/C [20]: 29.3%
- viability, T/C [21]: 19.2%
- viability, T/C [22]: 12.7%
- viability, T/C [23]: 8.96%
- viability, T/C [24]: 3.93%
- viability, T/C [25]: 13.7%
- viability, T/C [26]: 13.4%
- viability, T/C [27]: 11.3%
- viability, T/C [28]: 8.81%
- viability, T/C [29]: 6.34%
- viability, T/C [30]: 1.66%
- viability, T/C [31]: 3.8%
- viability, T/C [32]: 3.93%
- viability, T/C [33]: 3.32%
- viability, T/C [34]: 2.79%
- viability, T/C [35]: 1.39%
- viability, T/C [36]: 0.18%
